Reference: ChEMBL document CHEMBL3244316, “Pharmacology of some metabolites of triazolam, alprazolam, and diazepam prepared by a simple, one-step oxidation of benzodiazepines” (1978)

Legend:
Format in all cases: functional
Settings in all cases: CF-1, ip
Mus musculus [1] = assay: Anticonvulsant activity in ip dosed albino CF-1 mouse assessed as inhibition of nicotine-induced seizures
Mus musculus [2] = assay: Anticonvulsant activity in ip dosed albino CF-1 mouse assessed as inhibition of pentylenetetrazole-induced seizures
Mus musculus [3] = assay: Anticonvulsant activity in ip dosed albino CF-1 mouse assessed as inhibition of thiosemicarbazide-induced seizures
Mus musculus [4] = assay: Anticonvulsant activity in ip dosed albino CF-1 mouse assessed as inhibition of strychnine-induced seizures
Mus musculus [5] = assay: Anticonvulsant activity in ip dosed albino CF-1 mouse assessed as inhibition of maximal electric shock-induced seizures
Mus musculus [6] = assay: Antidepressant activity in ip dosed albino CF-1 mouse assessed as inhibition of ethanol-induced response
Mus musculus [7] = assay: Anxiolytic activity in ip dosed albino CF-1 mouse under hypoxic stress
Mus musculus [8] = assay: Effect on motor activity in ip dosed albino CF-1 mouse by traction test
Mus musculus [9] = assay: Effect on motor activity in ip dosed albino CF-1 mouse by chimney test
Mus musculus [10] = assay: Effect on motor activity in ip dosed albino CF-1 mouse by dish test
Mus musculus [11] = assay: Effect on motor activity in ip dosed albino CF-1 mouse by pedestal test

SMILES | ED50 (Mus musculus [1]) [mg/kg] | ED50 (Mus musculus [2]) [mg/kg] | ED50 (Mus musculus [3]) [mg/kg] | ED50 (Mus musculus [4]) [mg/kg] | ED50 (Mus musculus [5]) [mg/kg] | ED50 (Mus musculus [6]) [mg/kg] | ED50 (Mus musculus [7]) [mg/kg] | ED50 (Mus musculus [8]) [mg/kg] | ED50 (Mus musculus [9]) [mg/kg] | ED50 (Mus musculus [10]) [mg/kg] | ED50 (Mus musculus [11]) [mg/kg]
Cc1nnc2n1-c1ccc(Cl)cc1C(c1ccccc1)=NC2O (stereo not given) [4-HYDROXY-ALPRAZOLAM] | 4 | 0.7 | 5 | 25 | > 50 | 10 | 6.2 | 23 | 6.3 | 6.3 | 20
CN(C)Cc1nnc2n1-c1ccc(Cl)cc1C(c1ccccc1)=NC2 [ADINAZOLAM] | 0.2 | 0.8 | 0.15 | > 200 | 100 | 2.2 | 1.9 | 5.6 | 3.6 | 1.5 | 2.8
OC1N=C(c2ccccc2)c2cc(Cl)ccc2-n2ccnc21 (stereo not given) | 4 | 6.3 | 6.3 | > 80 | 63 | 7.9 | 60 | 32 | > 25 | 6 | 7
CN1C(=O)C(O)N=C(c2ccccc2)c2cc(Cl)ccc21 (stereo not given) [TEMAZEPAM] | 0.063 | 0.3 | 0.3 | 2.8 | 10 | 0.32 | 0.2 | 4 | 0.45 | 0.36 | 0.7
OCc1nnc2n1-c1ccc(Cl)cc1C(c1ccccc1Cl)=NC2 | 0.01 | 0.018 | 0.014 | 0.5 | 89 | 0.4 | 0.5 | 0.6 | 0.14 | 0.03 | 0.17
O=C1CN=C(c2ccccc2)c2cc(Cl)ccc2N1 [NORDAZEPAM] | 0.3 | 1.6 | 1.8 | 20 | > 100 | 1.8 | 0.7 | 7 | 0.7 | 0.5 | 0.9
Cc1nnc2n1-c1ccc(Cl)cc1C(c1ccccc1)=NC2 [ALPRAZOLAM] | 0.02 | 0.13 | 0.16 | 0.3 | 25 | 0.18 | 0.02 | 0.6 | 0.09 | 0.15 | 0.23
Clc1ccc2c(c1)C(c1ccccc1)=NCc1nccn1-2 | 1 | 2.2 | 1.6 | 7 | 32 | 3.6 | 25 | 16 | 3.6 | 5 | 4
OCc1nnc2n1-c1ccc(Cl)cc1C(c1ccccc1)=NC2 | 0.08 | 0.22 | 0.08 | 9.9 | 50 | 1.8 | 0.02 | 8 | 0.63 | 2 | 
OCc1nnc2n1-c1ccc(Cl)cc1C(c1ccccc1)=NC2O (stereo not given) | 6.2 | 40 | 8.9 | > 80 | > 100 | > 80 | > 50 | > 100 | > 80 | 56 | > 80
Cc1nnc2n1-c1ccc(Cl)cc1C(c1ccccc1Cl)=NC2 [TRIAZOLAM] | 0.004 | 0.009 | 0.02 | 0.22 | 30 | 0.7 | 0.035 | 0.3 | 0.08 | 0.03 | 0.03
Cc1nnc2n1-c1ccc(Cl)cc1C(c1ccccc1Cl)=NC2O (stereo not given) | 10 | 14 | 11.2 | > 80 | > 100 | > 80 | > 100 | > 100 | 45 | 8 | 11
OCc1nnc2n1-c1ccc(Cl)cc1C(c1ccccc1Cl)=NC2O (stereo not given) | 1 | 32 | 0.39 | > 80 | > 100 | 50 | 30 | > 100 | 2.2 | 5 | 44
CN1C(=O)CN=C(c2ccccc2)c2cc(Cl)ccc21 [DIAZEPAM] | 0.1 | 0.8 | 0.4 | 4 | 25 | 1 | 0.2 | 4 | 1.2 | 0.25 | 0.7
CN(C)Cc1nnc2n1-c1ccc(Cl)cc1C(c1ccccc1)=NC2O (stereo not given) | 2.2 | 4 | 0.88 | > 40 | > 100 | > 20 | 25 | 22 | 4 | 5 | 22
O=C1Nc2ccc(Cl)cc2C(c2ccccc2)=NC1O (stereo not given) [OXAZEPAM] | 0.14 | 0.7 | 0.9 | 9 | 79 | 1.8 | 12.5 | 13 | 1.8 | 1.1 | 2
